Assay results published in ChEMBL document CHEMBL1212720, “Identification of the toxic trigger in mushroom poisoning” (Nat Chem Biol, 2009).

How the values were obtained:
[1] = Toxicity in po dosed mouse; format: organism-based; settings: in vivo
Mus musculus [2] = experiment: Toxicity in po dosed ICR mouse assessed as decreased in mobility after 3 hrs; format: organism-based; settings: in vivo
[3] = (§1) Toxicity in po dosed rat; format: organism-based; settings: in vivo
Rattus norvegicus = experiment: as §1; format: organism-based; settings: in vivo
Escherichia = experiment: Antibacterial activity against Escherichia after 18 to 48 hrs by serial dilution method; format: functional
Enterococcus = experiment: Antibacterial activity against Enterococcus after 18 to 48 hrs by serial dilution method; format: functional
Pseudomonas = experiment: Antibacterial activity against Pseudomonas after 18 to 48 hrs by serial dilution method; format: functional
Candida = experiment: Antifungal activity against Candida after 18 to 48 hrs by serial dilution method; format: functional
Mycobacterium = experiment: Antibacterial activity against Mycobacterium after 18 to 48 hrs by serial dilution method; format: functional
Saccharomyces = experiment: Antifungal activity against Saccharomyces after 18 to 48 hrs by serial dilution method; format: functional
Shigella = experiment: Antibacterial activity against Shigella after 18 to 48 hrs by serial dilution method; format: functional
Serratia = experiment: Antibacterial activity against Serratia after 18 to 48 hrs by serial dilution method; format: functional
Corynebacterium = experiment: Antibacterial activity against Corynebacterium after 18 to 48 hrs by serial dilution method; format: functional
Salmonella = experiment: Antibacterial activity against Salmonella after 18 to 48 hrs by serial dilution method; format: functional
[4] = Chemical stability of the compound at 20 degC assessed as half life; format: physicochemical
Homo sapiens [5] = species: Homo sapiens; experiment: Cytotoxicity against human astrocytoma cells at 100 ug/ml by MTT assay; format: functional, cell-based
Micrococcus = experiment: Antibacterial activity against Micrococcus after 18 to 48 hrs by serial dilution method; format: functional
Staphylococcus = experiment: Antibacterial activity against Staphylococcus after 18 to 48 hrs by serial dilution method; format: functional
Bacillus = experiment: Antibacterial activity against Bacillus after 18 to 48 hrs by serial dilution method; format: functional
[6] = Antibacterial activity against Cryptococcus after 18 to 48 hrs by serial dilution method; format: functional
Mus musculus [7] = experiment: Toxicity in ip dosed ICR mouse assessed as decreased in mobility after 3 hrs; format: organism-based; settings: in vivo
sarcoma = experiment: Cytotoxicity against human synovial sarcoma cells at 100 ug/ml by MTT assay; format: functional, cell-based
Homo sapiens [8] = species: Homo sapiens; experiment: Cytotoxicity against human neuronal tumor cells at 100 ug/ml by MTT assay; format: functional, cell-based
Proteus = experiment: Antibacterial activity against Proteus after 18 to 48 hrs by serial dilution method; format: functional
Klebsiella = experiment: Antibacterial activity against Klebsiella after 18 to 48 hrs by serial dilution method; format: functional
[9] = Cytotoxicity against mouse hyphalamic cells at 100 ug/ml by MTT assay; format: cell-based
[10] = Cytotoxicity against mouse DRG neuron at 100 ug/ml by MTT assay
Mus musculus [11] = species: Mus musculus; experiment: Cytotoxicity against mouse neuronal tumor cells at 100 ug/ml by MTT assay; format: functional, cell-based
Mus musculus [12] = experiment: Induction of rhabdomyolysis in ICR mouse assessed as serum creatine […] level at 5 mg/kg, po after 4 hrs by spectrophotometry (reference value: 240 +/- 34 U/L); format: organism-based; design: dose 5 mg/kg, route oral; settings: in vivo
Mus musculus [13] = experiment: Induction of rhabdomyolysis in ICR mouse assessed as serum creatine […] level at 70 mg/kg, po after 4 hrs by spectrophotometry (reference value: 240 +/- 34 U/L); format: organism-based; design: dose 70 mg/kg, route oral; settings: in vivo

**Q.** With `C=C(C)C(=O)O` [METHACRYLIC ACID] as the compound, how does the LD50 [1] read?
**A.** 1600 mg/kg

**Q.** For `CCCC(=O)O` [BUTYRIC ACID], which LD100 (Mus musculus [2]) is on record?
**A.** 5000 mg/kg

**Q.** What about the LD50 [3] of the same compound?
**A.** 8790 mg/kg

**Q.** And the LDLO (Rattus norvegicus)?
**A.** 500 mg/kg

**Q.** With `C/C=C/C(=O)O` [CROTONIC ACID] as the compound, how does the LD50 [1] read?
**A.** 400 mg/kg

**Q.** And the LD100 (Mus musculus [2])?
**A.** 2500 mg/kg

**Q.** Which LD50 [1] does the source give for `CC(=O)O` [ACETIC ACID] here?
**A.** 4960 mg/kg

**Q.** And the LD100 (Mus musculus [2])?
**A.** 2500 mg/kg

**Q.** With `O=C(O)C1C=C1` as the compound, how does the MIC (Escherichia) read?
**A.** > 100 µg/mL

**Q.** What about the MIC (Enterococcus) of the same compound?
**A.** > 100 µg/mL

**Q.** And the MIC (Pseudomonas)?
**A.** > 100 µg/mL

**Q.** And the MIC (Candida)?
**A.** > 100 µg/mL

**Q.** And the MIC (Mycobacterium)?
**A.** > 100 µg/mL

**Q.** What about the MIC (Saccharomyces) of the same compound?
**A.** > 100 µg/mL

**Q.** And the MIC (Shigella)?
**A.** > 100 µg/mL

**Q.** And the MIC (Serratia)?
**A.** > 100 µg/mL

**Q.** What about the MIC (Corynebacterium) of the same compound?
**A.** > 100 µg/mL

**Q.** What about the MIC (Salmonella) of the same compound?
**A.** > 100 µg/mL

**Q.** What about the half-life [4] of the same compound?
**A.** 20 h

**Q.** What about the Activity (Homo sapiens [5]) of the same compound?
**A.** Not toxic

**Q.** What about the MIC (Micrococcus) of the same compound?
**A.** > 100 µg/mL

**Q.** And the MIC (Staphylococcus)?
**A.** > 100 µg/mL

**Q.** And the MIC (Bacillus)?
**A.** > 100 µg/mL

**Q.** And the MIC [6]?
**A.** > 100 µg/mL

**Q.** And the LD100 (Mus musculus [7])?
**A.** 2.5 mg/kg

**Q.** What about the LD100 (Mus musculus [2]) of the same compound?
**A.** 2.5 mg/kg

**Q.** What about the Activity (sarcoma) of the same compound?
**A.** Not toxic

**Q.** What about the Activity (Homo sapiens [8]) of the same compound?
**A.** Not toxic

**Q.** What about the MIC (Proteus) of the same compound?
**A.** > 100 µg/mL

**Q.** What about the MIC (Klebsiella) of the same compound?
**A.** > 100 µg/mL

**Q.** What about the Activity [9] of the same compound?
**A.** Non-toxic

**Q.** And the Activity [10]?
**A.** Non-toxic

**Q.** And the Activity (Mus musculus [11])?
**A.** Not toxic

**Q.** What about the Activity (Mus musculus [12]) of the same compound?
**A.** 3441 U/L

**Q.** Which LD100 (Mus musculus [2]) does the source give for `CC1=CC1C(=O)O` (centres undefined) here?
**A.** 50 mg/kg

**Q.** Which LD50 [1] does the source give for `CCC(=O)O` [PROPIONIC ACID] here?
**A.** 5100 mg/kg

**Q.** Which Activity (Mus musculus [13]) does the source give for `Nc1ccc(N)cc1` here?
**A.** 397 U/L

**Q.** With `C#CC(=O)O` [PROPIOLIC ACID] as the compound, how does the LD50 [1] read?
**A.** 100 mg/kg

**Q.** For `CC1=C(C)C1C(=O)O`, which LD100 (Mus musculus [2]) is on record?
**A.** > 250 mg/kg
